From patent US10183947B2, “Pyrazole derivatives useful as 5-lipoxygenase activating protein (FLAP) inhibitors” (ASTRAZENECA AB, priority 2015, dated 2019) come the findings set out here.

The structures appear in SMILES notation.

The target in experiment [1] is FLAP (human ALOX5AP expressed in COS-7 cell membranes) (Homo sapiens (Human), UniProt P20292). Briefly: FLAP Binding Assay (Test A), competition binding with 3H-MK591 as tracer. As to conditions: competition with 3H-MK591 (2 nM), membranes from COS-7 cells expressing human ALOX5AP, 60 min at rt. On the procedure: FLAP Binding Assay (Test A) Compounds were tested in a competition binding assay using ^3H-MK591 as tracer. […] Med. Chem. […] A 100,000×g pellet from COS-7 cells stably transfected with a plasmid expressing human ALOX5AP was the source of FLAP. […] Following filtration, filter plates were dried 12 h at RT (or 50° C. for 1 hour). 50 μL scintillant was then added, the filterplates were sealed and radioactivity was measured in a microbeta counter. Specific binding was defined as total binding minus non-specific binding. Total binding was defined as ^3H-MK591 bound to membranes in the absence of competitor, non-specific binding was defined as ^3H-MK591 in the presence of 0.1 mM MK-591. IC50 values were determined by plotting % inhibition versus log compound concentration and using a one site dose response model.
Sequence of FLAP (human ALOX5AP expressed in COS-7 cell membranes) (P20292 whole entry): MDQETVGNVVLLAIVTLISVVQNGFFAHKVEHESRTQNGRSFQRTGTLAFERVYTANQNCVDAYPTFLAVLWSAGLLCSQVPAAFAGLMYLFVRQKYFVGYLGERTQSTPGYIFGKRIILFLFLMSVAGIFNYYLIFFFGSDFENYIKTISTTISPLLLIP

Experiment [2] concerns LTB4 production in fresh human whole blood. Briefly: FLAP Whole Blood Assay (Test B), inhibition of LTB4 production. As to conditions: method B: compound incubated with human whole blood at 37° C. for 4 h, then calcium ionophore A23187; LTB4 by EIA; read-out: IC50 nM (method B). It counts as cell-based. As for the experimental part:
FLAP Whole Blood Assay (Test B)
Compounds were tested for the inhibition of LTB4 production in fresh human whole blood obtained by venapuncture using heparin to prevent clotting. 1.5 μL compounds or DMSO carrier were dispensed into the wells of a 96-well deep-well plate in 3-fold dilution series. 500 μL hepamised whole blood was then added followed by incubation at 37° C. for 30 min (method A) or 4 h (method B). 100 μL blood was subsequently transferred in triplicate to pre-dispensed 0.5 μL 2 mM calcium ionophore (calcimycin; A23187) in a second 96-well plate. Following incubation at 37° C. for 20 min, the assays were stopped by adding 10 μL of stop solution (100 mM EGTA, pH 7.4) and the plate was transferred to ice. The plate was centrifuged at 3000 rpm at 4° C. for 10 min and […] was transferred to a fresh 96 well plate containing 90 μL pre-dispensed EIA assay buffer (0.1 M phosphate buffer+0.1% BSA). LTB4 was then measured using reagents from a commercial EIA (Cayman Chemicals). LTB4 production was defined as the LTB4 level in the presence of a given concentration of test compound minus the LTB4 level in the presence of 50 nM 5-[[4-[(2S,4R)-4-hydroxy-2-methyl-tetrahydropyran-4-yl]-2-thienyl]sulfanyl]-1-methyl-indolin-2-one. (Preparation of 5-[[4-[(2S,4R)-4-hydroxy-2-methyl-tetrahydropyran-4-yl]-2-thienyl]sulfanyl]-1-methyl-indolin-2-one was described in Org. Process Res. Dev., 2005, 9, 555-569 or EP623614 B1). Inhibition of LTB4 production was defined as the LTB4 level in the presence of a given concentration of test compound expressed as a % of the LTB4 level in the presence of DMSO. IC50 values were determined by plotting % inhibition versus log compound concentration and using a one site dose response model.

With `NC(=O)c1[nH]ncc1NC(=O)[C@@H]1CCCC[C@H]1C(=O)c1ccc(-c2ccn[nH]2)cc1` [Example 23, 4-[({(1R,2R)-2-[4-(1H-Pyrazol-5-yl)benzoyl]cyclohexyl}carbonyl)amino]-1H-pyrazole-5-carboxamide], the IC50 (commonly the point on the concentration scale where inhibition reaches its midpoint) in experiment [1] turned out to be 35 nM; in experiment [2] it was 130 nM.

With `O=C1NCCn2ncc(NC(=O)[C@@H]3CCCC[C@H]3C(=O)c3ccc(-c4ccn[nH]4)cc3)c21` [Example 24, (1R,2R)—N-(4-Oxo-4,5,6,7-tetrahydropyrazolo[1,5-a]pyrazin-3-yl)-2-[4-(1H-pyrazol-5-yl)benzoyl]cyclohexanecarboxamide], the IC50 was 8.1 nM in experiment [1] and 18 nM in experiment [2].

As to `CNS(=O)(=O)c1c(NC(=O)[C@@H]2CCCC[C@H]2C(=O)c2ccc(-c3cc(C)n[nH]3)cc2)cnn1C` [Example 25, (1R,2R)—N-[1-Methyl-5-(methylsulfamoyl)-1H-pyrazol-4-yl]-2-[4-(3-methyl-1H-pyrazol-5-yl)benzoyl]cyclohexanecarboxamide], the results for the IC50 in experiment [1] and in experiment [2] were 25 nM and 210 nM, respectively.

For the compound `Cn1cc(NC(=O)[C@@H]2CCCC[C@H]2C(=O)c2ccc(-c3ccn[nH]3)cc2)c(S(N)(=O)=O)n1` [Example 26, (1R,2R)—N-(1-Methyl-3-sulfamoyl-1H-pyrazol-4-yl)-2-[4-(1H-pyrazol-5-yl)benzoyl]cyclohexanecarboxamide], the concentration for half-maximal inhibition (IC50) worked out at 290 nM in experiment [1] and 250 nM in experiment [2].

Regarding `CN(C)S(=O)(=O)c1c(NC(=O)[C@@H]2CCCC[C@H]2C(=O)c2ccc(-c3ccn[nH]3)cc2)cnn1C` [Example 27, (1R,2R)—N-[5-(Dimethylsulfamoyl)-1-methyl-1H-pyrazol-4-yl]-2-[4-(1H-pyrazol-5-yl)benzoyl]cyclohexanecarboxamide], the IC50 stood at 65 nM in experiment [1] and 55 nM in experiment [2].

As for `Cc1cc(-c2ccc(C(=O)[C@@H]3CCCC[C@H]3C(=O)Nc3c(C)nn4c3C(=O)NCC4)cc2)n[nH]1` [Example 28, (1R,2R)—N-(2-Methyl-4-oxo-4,5,6,7-tetrahydropyrazolo[1,5-a]pyrazin-3-yl)-2-[4-(5-methyl-1H-pyrazol-3-yl)benzoyl]cyclohexanecarboxamide], the figures for the IC50 in experiment [1] and in experiment [2] were 3.9 nM and 380 nM, respectively.

Consider `Cc1nn2c(c1NC(=O)[C@@H]1CCCC[C@H]1C(=O)c1ccc(-c3cc[nH]n3)cc1)C(=O)NCC2` [Example 29, (1R,2R)—N-(2-Methyl-4-oxo-4,5,6,7-tetrahydropyrazolo[1,5-a]pyrazin-3-yl)-2-[4-(1H-pyrazol-5-yl)benzoyl]cyclohexanecarboxamide], for which the values for the IC50 in experiment [1] and in experiment [2] were 4.8 nM and 330 nM, respectively.

With `O=C(Nc1cn[nH]c1C(F)F)[C@@H]1CCCC[C@H]1C(=O)c1ccc(-c2cc[nH]n2)cc1` [Example 30, (1R,2R)—N-[5-(Difluoromethyl)-1H-pyrazol-4-yl]-2-[4-(1H-pyrazol-3-yl)benzoyl]cyclohexanecarboxamide], the IC50 was 12 nM in experiment [1] and 50 nM in experiment [2].

`Cc1cc(-c2ccc(C(=O)[C@@H]3CCCC[C@H]3C(=O)Nc3nnco3)cc2)[nH]n1` [Example 43, (1R,2R)-2-[4-(3-Methyl-1H-pyrazol-5-yl)benzoyl]-N-(1,3,4-oxadiazol-2-yl)cyclohexanecarboxamide]: the figures for the IC50 in experiment [1] and in experiment [2] were 140 nM and 904 nM, respectively.
